Experimental data published in ChEMBL document CHEMBL1201862, “PubChem BioAssay data set” (2004).
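Compound exposure: 48 hours, 5 concentrations, 96-well plates. The concentration for 50% growth inhibition is given as GI50.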 Activity calls are given as the source filed them. Cut-off read from the data, not from the text of the source: active = GI50 up to about 1.1 µM and inactive = higher.

What was measured:
Assay in all cases: NCI tumour cell line growth inhibition, 48 h
786-0 = tested on: 786-0
A498 = tested on: A498
A549 = tested on: A549
ACHN = tested on: ACHN
BT-549 = tested on: BT-549
CAKI-1 = tested on: CAKI-1
CCRF-CEM = tested on: CCRF-CEM
COLO 205 = tested on: COLO 205
DU-145 = tested on: DU-145
EKVX = tested on: EKVX
HCC 2998 = tested on: HCC 2998
HCT-116 = tested on: HCT-116
HCT-15 = tested on: HCT-15
HL-60 = tested on: HL-60
HOP-62 = tested on: HOP-62
HOP-92 = tested on: HOP-92
HT-29 = tested on: HT-29
IGROV-1 = tested on: IGROV-1
K562 = tested on: K562
KM12 = tested on: KM12
LOX IMVI = tested on: LOX IMVI
M14 = tested on: M14
MCF7 = tested on: MCF7
MDA-MB-231 = tested on: MDA-MB-231
MDA-MB-435 = tested on: MDA-MB-435
MOLT-4 = tested on: MOLT-4
NCI-H226 = tested on: NCI-H226
NCI-H23 = tested on: NCI-H23
NCI-H460 = tested on: NCI-H460
NCI-H522 = tested on: NCI-H522
NCI/ADR-RES = tested on: NCI/ADR-RES
OVCAR-3 = tested on: OVCAR-3
OVCAR-4 = tested on: OVCAR-4
OVCAR-5 = tested on: OVCAR-5
OVCAR-8 = tested on: OVCAR-8
PC-3 = tested on: PC-3
RPMI-8226 = tested on: RPMI-8226
RXF 393 = tested on: RXF 393
SF-268 = tested on: SF-268
SF-295 = tested on: SF-295
SF-539 = tested on: SF-539
SK-MEL-28 = tested on: SK-MEL-28
SK-MEL-2 = tested on: SK-MEL-2
SK-MEL-5 = tested on: SK-MEL-5
SK-OV-3 = tested on: SK-OV-3
SN12C = tested on: SN12C
SNB-75 = tested on: SNB-75
SR = tested on: SR
SW-620 = tested on: SW-620
T47D = tested on: T47D
TK-10 = tested on: TK-10
U-251 = tested on: U-251
UACC-257 = tested on: UACC-257
UACC-62 = tested on: UACC-62
UO-31 = tested on: UO-31

How did the GI50 (786-0) turn out when `COc1ccc(COCCOCc2nc(C#N)c(N)o2)cc1` was run?
The GI50 was > 100 µM (inactive).

What about the GI50 (A498) of the same compound?
The GI50 was > 100 µM (inactive).

What about the GI50 (A549) of the same compound?
The GI50 was > 100 µM (inactive).

What about the GI50 (ACHN) of the same compound?
The GI50 was > 100 µM (inactive).

And the GI50 (BT-549)?
The GI50 was > 100 µM (inactive).

What about the GI50 (CAKI-1) of the same compound?
Its GI50 is 89.9 µM (inactive).

What about the GI50 (CCRF-CEM) of the same compound?
The GI50 was 29 µM (inactive).

And the GI50 (COLO 205)?
The GI50 was > 100 µM (inactive).

And the GI50 (DU-145)?
The GI50 was > 100 µM (inactive).

And the GI50 (EKVX)?
The GI50 was > 100 µM (inactive).

What about the GI50 (HCC 2998) of the same compound?
Its GI50 is > 100 µM (inactive).

And the GI50 (HCT-116)?
The GI50 was > 100 µM (inactive).

What about the GI50 (HCT-15) of the same compound?
Its GI50 is greater than 100 µM.

And the GI50 (HL-60)?
The GI50 was > 100 µM (inactive).

And the GI50 (HOP-62)?
The GI50 was > 100 µM (inactive).

And the GI50 (HOP-92)?
The GI50 was > 100 µM (inactive).

And the GI50 (HT-29)?
Its GI50 is > 100 µM (inactive).

And the GI50 (IGROV-1)?
The GI50 was > 100 µM (inactive).

And the GI50 (K562)?
The GI50 was > 100 µM (inactive).

What about the GI50 (KM12) of the same compound?
Its GI50 is > 100 µM (inactive).

What about the GI50 (LOX IMVI) of the same compound?
The GI50 was > 100 µM (inactive).

And the GI50 (M14)?
The GI50 was > 100 µM (inactive).

What about the GI50 (MCF7) of the same compound?
Its GI50 is > 100 µM (inactive).

What about the GI50 (MDA-MB-231) of the same compound?
Its GI50 is > 100 µM (inactive).

What about the GI50 (MDA-MB-435) of the same compound?
Its GI50 is > 100 µM (inactive).

And the GI50 (MOLT-4)?
Its GI50 is > 100 µM (inactive).

What about the GI50 (NCI-H226) of the same compound?
The GI50 was > 100 µM (inactive).

What about the GI50 (NCI-H23) of the same compound?
Its GI50 is > 100 µM (inactive).

And the GI50 (NCI-H460)?
The GI50 was > 100 µM (inactive).

And the GI50 (NCI-H522)?
Its GI50 is 6.79 µM (inactive).

What about the GI50 (NCI/ADR-RES) of the same compound?
The GI50 was > 100 µM (inactive).

What about the GI50 (OVCAR-3) of the same compound?
The GI50 was > 100 µM (inactive).

What about the GI50 (OVCAR-4) of the same compound?
Its GI50 is > 100 µM (inactive).

And the GI50 (OVCAR-5)?
Its GI50 is > 100 µM (inactive).

What about the GI50 (OVCAR-8) of the same compound?
Its GI50 is > 100 µM (inactive).

What about the GI50 (PC-3) of the same compound?
Its GI50 is > 100 µM (inactive).

What about the GI50 (RPMI-8226) of the same compound?
The GI50 was > 100 µM (inactive).

And the GI50 (RXF 393)?
Its GI50 is > 100 µM (inactive).

And the GI50 (SF-268)?
Its GI50 is > 100 µM (inactive).

What about the GI50 (SF-295) of the same compound?
Its GI50 is > 100 µM (inactive).

What about the GI50 (SF-539) of the same compound?
The GI50 was > 100 µM (inactive).

And the GI50 (SK-MEL-28)?
Its GI50 is > 100 µM (inactive).

And the GI50 (SK-MEL-2)?
The GI50 was > 100 µM (inactive).

What about the GI50 (SK-MEL-5) of the same compound?
The GI50 was > 100 µM (inactive).

And the GI50 (SK-OV-3)?
Its GI50 is > 100 µM (inactive).

And the GI50 (SN12C)?
The GI50 was > 100 µM (inactive).

And the GI50 (SNB-75)?
Its GI50 is > 100 µM (inactive).

And the GI50 (SR)?
Its GI50 is > 100 µM (inactive).

And the GI50 (SW-620)?
Its GI50 is > 100 µM (inactive).

And the GI50 (T47D)?
Its GI50 is > 100 µM (inactive).

And the GI50 (TK-10)?
Its GI50 is > 100 µM (inactive).

What about the GI50 (U-251) of the same compound?
The GI50 was > 100 µM (inactive).

What about the GI50 (UACC-257) of the same compound?
Its GI50 is > 100 µM (inactive).

What about the GI50 (UACC-62) of the same compound?
The GI50 was > 100 µM (inactive).

What about the GI50 (UO-31) of the same compound?
Its GI50 is > 100 µM (inactive).
